Source: patent US20150099703A1, “TREATMENT OF POSTPARTUM HAEMORRHAGE WITH CHEMICALLY MODIFIED HEPARIN OR HEPARAN SULPHATE AND A UTEROTONIC AGENT” (DILAFOR AB, priority 2012, published 2015)
Positions of bridges follow the written chain, without caps; N, C: chain ends. Non-standard residues stand in square brackets, D forms with d. Residues, ends and D or L forms follow the SMILES beside them. Orn = NCCC[C@H](N)C(=O)O; Mpa = O=C(O)CCS

How the values were obtained:
[1] = test system: Human uterine smooth muscle cells; experiment: Intracellular Ca2+ measurement (Fluo-4, confocal live cell imaging) in uterine smooth muscle cells; assay type: cell-based
Protocol: Human uterine smooth muscle cells were established in a culture. Intracellular Ca^2+ was measured with the calcium indicator dye Fluo-4 and live cell imaging with confocal microscopy was established for the cells.

[2] = heparin, comparison; cited from earlier work

Molecule: CC[C@H](C)[C@@H]1NC(=O)[C@H](Cc2ccc(O)cc2)NC(=O)[C@@H](N)CSSC[C@@H](C(=O)N2CCC[C@H]2C(=O)N[C@@H](CC(C)C)C(=O)NCC(N)=O)NC(=O)[C@H](CC(N)=O)NC(=O)[C@H](CCC(N)=O)NC1=O [oxytocin]
- Ca2+-influx to the cytosol ([1]; cells treated with oxytocin alone): Ca^2+-influx to the cytosol was demonstrated
- concentration giving maximum effect on Ca2+-influx ([1]; oxytocin alone, dose-dependent effect): 0.05 IU/ml

Molecule: NCCOB(c1ccccc1)c1ccccc1 [2-APB, 2-Aminoethoxydiphenyl borate]
- effect on oxytocin stimulated Ca2+-transport ([1]; 100 μM, 30 min of incubation): decreased strongly
- effect on oxytocin/DF01 stimulated Ca2+-transport ([1]; 100 μM, 30 min of incubation): decreased strongly

Molecule: CCOc1ccc(C[C@H]2NC(=O)CCSSC[C@@H](C(=O)N3CCC[C@H]3C(=O)N[C@@H](CCCN)C(=O)NCC(N)=O)NC(=O)[C@H](CC(N)=O)NC(=O)[C@H]([C@@H](C)O)NC(=O)[C@H]([C@@H](C)CC)NC2=O)cc1 [Atosiban] ([Mpa][dY](Et)ITNCP[Orn]G-NH2; disulfide 1-6)
- effect on the combination oxytocin/DF01 effect on Ca2+ transport ([1]; concentration of 10^−6 M): clearly inhibited
- effect on the oxytocin effect on Ca2+ transport ([1]; concentration of 10^−6 M): clearly inhibited

Molecule: heparin
- corresponding (subcutaneous) bioavailability [2]: about 10%
